Measurements published in patent US20050238593A1, “Compositions containing dolichol for dermatological and cosmetic use” (priority 2002, published 2005).

What was measured:
[1] = Study of anti UV-B activity: UV photo-irradiation of dolichol, absorbance change; assay type: physicochemical
Description: (§1) After irradiation, dolichol undergoes transformations in the most dangerous spectral region (UVB), depending on the dose of radiation applied; it absorbs UV radiation and, if irradiated with UVC rays, instantly acquires an absorption capacity in the UVB region. […] The phenomenon is very weak in the case of irradiation with monochromatic light at 310 nm, more intense with irradiation at 280 nm, and greatest with white light irradiation, namely with the entire emission spectrum of the xenon lamp. […] The photodecomposition products of dolichol have not yet been identified but, by analogy with the findings made with peroxidative degradation of dolichol in isolated hepatocytes treated with carbon tetrachloride, it can be concluded that in biological systems, the degradation cascade leads to the formation of thiobarbituric acid reactive substances (TBARS), which are readily metabolised and detoxified by the body in the event of resorption. […] As regards absorption, it should be borne in mind that dolichol is a normal constituent of all cell membranes, in which it is synthesised and remains until breakdown, without being resorbed into the bloodstream or being transferable to other tissues.

[2] = In vivo photoprotection tests using dolichol; settings: dolichol approx. 1 mg/cm2, in vivo
[3] = tested on: isolated hepatocytes treated with carbon tetrachloride; assay: Peroxidative degradation of dolichol and TBARS formation in hepatocytes treated with CCl4; assay type: cell-based; settings: Vitamin E administered
Description: as §1

increase in absorbance at 250 nm ([1]; irradiated with UVC rays)	increase in absorbance at 320 nm ([1]; irradiated with UVC rays, in one minute) [%]	increase in absorbance at 320 nm ([1]; irradiated with UVC rays, in two minutes) [%]	acquisition of UVB absorption (the phenomenon) ([1]; irradiation at 280 nm)	acquisition of UVB absorption (the phenomenon) ([1]; irradiation with monochromatic light at 310 nm)	acquisition of UVB absorption (the phenomenon) ([1]; white light irradiation, entire emission spectrum of the xenon lamp)	cell-damaging effects [2]	Substance	photostability under UV photo-irradiation ([1]; UV photo-irradiation in an oxygen atmosphere)	(photo)sensitising effects [2]	degradation of dolichol and formation of TBARS [3]
more modest increases	430	580	more intense	very weak	greatest	does not have cell-damaging effects	dolichol	apparent breakdown, accompanied by disappearance of UVC absorption capacity	does not have cell-damaging effects or (photo)sensitising effects	–
–	–	–	–	–	–	–	Vitamin E	–	–	prevented
